Test results: doi:10.1101/2020.03.06.976563v1 (biorxiv, 2020)
Read-outs that look alike come from different tables or passages of the source.

How the values were obtained:
[1] = target: T1, BMP2K (Homo sapiens, UniProt Q9NSY1); test: biochemical
[2] = target: T2, cyclin G associated kinase (GAK), kinase domain (Homo sapiens, UniProt O14976); test: biochemical
T2 sequence (O14976 12-347 limits assumed): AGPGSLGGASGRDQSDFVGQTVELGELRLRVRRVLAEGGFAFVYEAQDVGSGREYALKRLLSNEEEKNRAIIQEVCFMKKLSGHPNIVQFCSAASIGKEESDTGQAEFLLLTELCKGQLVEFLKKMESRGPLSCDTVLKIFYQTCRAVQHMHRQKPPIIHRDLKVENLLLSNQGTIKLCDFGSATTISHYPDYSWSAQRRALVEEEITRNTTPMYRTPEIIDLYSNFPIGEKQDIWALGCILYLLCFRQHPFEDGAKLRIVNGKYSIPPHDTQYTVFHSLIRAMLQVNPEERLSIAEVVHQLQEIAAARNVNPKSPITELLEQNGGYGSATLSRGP

[3] = target: T3, STK16 (Homo sapiens, UniProt O75716); test: biochemical
T3 sequence (O75716 whole entry): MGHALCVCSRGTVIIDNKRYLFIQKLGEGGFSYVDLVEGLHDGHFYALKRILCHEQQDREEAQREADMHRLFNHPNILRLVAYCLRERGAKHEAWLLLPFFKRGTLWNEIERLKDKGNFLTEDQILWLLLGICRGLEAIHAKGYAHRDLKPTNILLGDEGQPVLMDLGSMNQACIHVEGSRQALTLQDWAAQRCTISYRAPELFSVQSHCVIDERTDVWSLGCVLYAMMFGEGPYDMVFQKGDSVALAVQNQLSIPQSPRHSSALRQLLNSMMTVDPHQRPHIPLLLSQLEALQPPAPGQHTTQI

[4] = target: T4, AAK1 (Homo sapiens, UniProt Q2M2I8); test: biochemical
T4 sequence (Q2M2I8 whole entry, the tested form may be a part): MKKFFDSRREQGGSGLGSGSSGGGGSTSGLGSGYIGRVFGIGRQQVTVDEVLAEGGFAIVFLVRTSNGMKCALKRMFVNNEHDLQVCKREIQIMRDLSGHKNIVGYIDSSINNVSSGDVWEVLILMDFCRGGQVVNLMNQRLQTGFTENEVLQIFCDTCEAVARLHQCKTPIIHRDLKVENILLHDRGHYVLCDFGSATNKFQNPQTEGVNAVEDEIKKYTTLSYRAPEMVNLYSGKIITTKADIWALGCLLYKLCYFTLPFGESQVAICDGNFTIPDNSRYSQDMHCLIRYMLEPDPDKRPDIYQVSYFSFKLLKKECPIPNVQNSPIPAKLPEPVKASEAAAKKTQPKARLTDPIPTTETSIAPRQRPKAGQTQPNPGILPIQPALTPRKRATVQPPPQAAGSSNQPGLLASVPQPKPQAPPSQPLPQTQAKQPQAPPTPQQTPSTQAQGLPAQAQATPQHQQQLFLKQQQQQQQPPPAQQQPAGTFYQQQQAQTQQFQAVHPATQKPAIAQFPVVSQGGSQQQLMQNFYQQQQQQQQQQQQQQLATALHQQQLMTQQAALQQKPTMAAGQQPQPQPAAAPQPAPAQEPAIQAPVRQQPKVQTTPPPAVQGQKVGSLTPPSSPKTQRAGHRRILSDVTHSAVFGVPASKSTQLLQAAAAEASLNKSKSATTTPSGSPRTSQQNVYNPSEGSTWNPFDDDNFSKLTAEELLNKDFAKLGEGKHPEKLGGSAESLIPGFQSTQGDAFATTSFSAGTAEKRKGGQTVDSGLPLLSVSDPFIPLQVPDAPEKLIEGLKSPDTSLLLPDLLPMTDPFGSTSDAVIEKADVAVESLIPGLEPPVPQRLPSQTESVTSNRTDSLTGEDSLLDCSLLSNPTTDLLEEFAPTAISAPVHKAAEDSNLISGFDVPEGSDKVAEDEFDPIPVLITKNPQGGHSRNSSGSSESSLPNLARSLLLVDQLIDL

[5] = target: T2, cyclin G associated kinase (GAK), kinase domain; test: TR-FRET ligand binding displacement assay, 16-point dose response
[6] = target: T4, AAK1; test: biochemical; remark: listed apart in the source
[7] = target: T3, STK16; test: biochemical; remark: listed apart in the source
[8] = target: T1, BMP2K; test: biochemical; remark: listed apart in the source
[9] = target: T2, cyclin G associated kinase (GAK), kinase domain; test: biochemical; remark: listed apart in the source

T1 sequence (Q9NSY1 whole entry, the tested form may be a part): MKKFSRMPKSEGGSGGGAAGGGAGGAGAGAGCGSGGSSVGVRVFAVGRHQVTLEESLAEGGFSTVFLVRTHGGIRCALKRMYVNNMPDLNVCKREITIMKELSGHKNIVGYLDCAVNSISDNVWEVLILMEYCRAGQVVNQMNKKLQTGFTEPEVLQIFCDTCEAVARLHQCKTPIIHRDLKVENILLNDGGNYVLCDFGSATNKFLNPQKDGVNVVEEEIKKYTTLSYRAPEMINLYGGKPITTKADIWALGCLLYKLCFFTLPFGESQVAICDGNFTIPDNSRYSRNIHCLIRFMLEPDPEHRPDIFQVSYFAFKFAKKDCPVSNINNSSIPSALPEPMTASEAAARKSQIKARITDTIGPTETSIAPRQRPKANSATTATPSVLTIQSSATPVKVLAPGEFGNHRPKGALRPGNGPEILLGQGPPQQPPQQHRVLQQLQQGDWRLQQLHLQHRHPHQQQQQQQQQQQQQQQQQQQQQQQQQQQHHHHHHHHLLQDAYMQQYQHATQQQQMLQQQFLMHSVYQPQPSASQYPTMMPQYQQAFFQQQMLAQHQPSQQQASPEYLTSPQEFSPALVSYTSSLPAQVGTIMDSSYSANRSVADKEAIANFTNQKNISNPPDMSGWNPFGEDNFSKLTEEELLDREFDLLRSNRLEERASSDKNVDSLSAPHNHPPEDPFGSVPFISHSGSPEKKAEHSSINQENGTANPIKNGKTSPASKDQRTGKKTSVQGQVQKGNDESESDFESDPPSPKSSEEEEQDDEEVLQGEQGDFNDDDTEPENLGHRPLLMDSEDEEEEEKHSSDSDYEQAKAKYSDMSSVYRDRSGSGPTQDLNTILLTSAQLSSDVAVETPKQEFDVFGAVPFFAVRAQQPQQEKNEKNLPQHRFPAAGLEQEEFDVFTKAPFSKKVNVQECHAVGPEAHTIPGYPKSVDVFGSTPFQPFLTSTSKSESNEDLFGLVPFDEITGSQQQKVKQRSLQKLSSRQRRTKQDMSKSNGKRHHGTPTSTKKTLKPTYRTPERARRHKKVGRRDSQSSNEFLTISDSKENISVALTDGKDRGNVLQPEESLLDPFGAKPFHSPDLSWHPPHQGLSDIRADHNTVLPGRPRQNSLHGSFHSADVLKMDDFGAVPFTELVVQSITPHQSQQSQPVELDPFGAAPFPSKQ

| SMILES | Ki [1] [µM] | Ki [2] [µM] | Ki [3] [µM] | Ki [4] [µM] | Ki [5] [µM] | Ki [6] [µM] | Ki [7] [µM] | Ki [8] [µM] | Ki [9] [µM] |
| --- | --- | --- | --- | --- | --- | --- | --- | --- | --- |
| CN(C)c1cccc(Nc2ccnc3ccc(C(F)(F)F)cc23)c1 [compound 8, ^1N,^1N-dimethyl-3-N-[6-(trifluoromethyl)quinolin-4-yl]benzene-1,3-diamine] | > 100 | – | 13 | > 100 | 0.65 | – | – | – | – |
| CN(C)c1cccc(Nc2ccnc3ccccc23)c1 [compound 10, N1 ,N1-dimethyl-N3-(quinolin-4-yl)benzene-1,3-diamine] | > 100 | 0.97 | > 100 | 29 | – | – | – | – | – |
| OCc1cccc(Nc2ccnc3ccc(C(F)(F)F)cc23)c1 [compound 11, (3-{[6-(trifluoromethyl)quinolin-4-yl]amino}phenyl)methanol] | 15 | 0.06 | 20 | 10 | – | – | – | – | – |
| COc1cccc(Nc2ccnc3ccc(Br)cc23)c1 [compound 13, 6-bromo-N-(3-methoxyphenyl)quinolin-4-amine] | – | – | – | – | – | 3 | 32 | 7 | 0.0029 |
| Oc1cccc(Nc2ccnc3ccc(Br)cc23)c1 [compound 14, 3-((6-bromoquinolin-4-yl)amino)phenol] | – | – | – | – | – | 0.5 | 5.7 | 2 | 0.0012 |
| COc1cccc(Nc2ccnc3ccccc23)c1 [compound 15, N-(3-methoxyphenyl)quinolin-4-amine] | > 100 | 0.027 | > 100 | 25 | – | – | – | – | – |
| COc1cccc(Nc2ccnc3ccc(OC)cc23)c1 [compound 17, 6-methoxy-N-(3-methoxyphenyl)quinolin-4-amine] | 26 | 0.0079 | > 100 | 9.1 | – | – | – | – | – |
| COc1cccc(Nc2ccnc3ccc(S(C)(=O)=O)cc23)c1 [compound 19, 6-methanesulfonyl-N-(3-methoxyphenyl)quinolin-4-amine] | 19 | 0.03 | > 100 | 23 | – | – | – | – | – |
| Brc1ccc2nccc(Nc3ccc4c(c3)OCO4)c2c1 [compound 25, N-(2H-1,3-benzodioxol-5-yl)-6-bromoquinolin-4-amine] | – | – | – | – | – | 5.2 | 10 | 12 | 0.035 |
| Brc1ccc2nccc(Nc3cccc4c3OCO4)c2c1 [compound 27, N-(Benzo[d][1,3]dioxol-4-yl)-6-bromoquinolin-4-amine] | – | – | – | – | – | > 100 | > 100 | > 100 | – |
| CC(C)(C)Oc1cccc(Nc2ccnc3ccc(Br)cc23)c1 [compound 33, 6-bromo-N-[3-(tert-butoxy)phenyl]quinolin-4-amine] | – | – | – | – | – | 15 | 12 | > 100 | 2.2 |

Further lines, results first:

| Ki [1] [µM] | Ki [2] [µM] | Ki [3] [µM] | Ki [4] [µM] | Ki [5] [µM] | Ki [6] [µM] | Ki [7] [µM] | Ki [8] [µM] | Ki [9] [µM] | SMILES |
| --- | --- | --- | --- | --- | --- | --- | --- | --- | --- |
| 5.8 | 0.0047 | 3 | 2.6 | – | – | – | – | – | Oc1cccc(Nc2ccnc3ccc(C(F)(F)F)cc23)c1 [compound 5, 3-((6-(trifluoromethyl)quinolin-4-yl)amino)phenol] |
| > 100 | 0.21 | > 100 | > 100 | – | – | – | – | – | O=[N+]([O-])c1cccc(Nc2ccnc3ccc(C(F)(F)F)cc23)c1 [compound 6, N-(3-nitrophenyl)-6-(trifluoromethyl)quinolin-4-amine] |
| 16 | 0.041 | 5 | 8.5 | – | – | – | – | – | OCc1ccccc1Nc1ccnc2ccc(C(F)(F)F)cc12 [compound 12, (2-{[6-(trifluoromethyl)quinolin-4-yl]amino}phenyl)methanol] |
| 30 | 0.012 | > 100 | 6.6 | – | – | – | – | – | Oc1cccc(Nc2ccnc3ccccc23)c1 [compound 16, 3-(quinolin-4-ylamino)phenol] |
| 7.3 | 0.0057 | 27 | 1.6 | – | – | – | – | – | COc1ccc2nccc(Nc3cccc(O)c3)c2c1 [compound 18, 3-((6-methoxyquinolin-4-yl)amino)phenol] |
| – | – | – | – | – | 40 | > 100 | > 100 | 0.056 | O=[N+]([O-])c1cccc(Nc2ccnc3ccc(Br)cc23)c1 [compound 21, 6-bromo-N-(3-nitrophenyl)quinolin-4-amine] |
| – | – | – | – | – | 0.39 | 5.5 | 1.3 | 0.011 | COc1cccc(Nc2ncnc3ccc(Br)cc23)c1 [compound 29, 6-bromo-N-(3-methoxyphenyl)quinazolin-4-amine] |
| – | – | – | – | – | > 100 | > 100 | > 100 | 4.9 | FS(F)(F)(F)(F)c1cccc(Nc2ccnc3ccc(Br)cc23)c1 [compound 32, 6-bromo-N-(3-(pentafluoro-λ^6-sulfaneyl)phenyl)quinolin-4-amine] |
| – | – | – | – | – | > 100 | > 100 | > 100 | 2.6 | CC(C)(C)c1cccc(Nc2ccnc3ccc(Br)cc23)c1 [compound 34, 6-bromo-N-(3-tert-butylphenyl)quinolin-4-amine] |
